By MIC is commonly meant the least concentration at which growth counts as inhibited. Read a low MIC as inhibition by little substance. One may read the Vd as the apparent volume that relates the amount in the body to the concentration in plasma or blood. A low value points to confinement near the circulation. As usually defined, the logP is the decadic logarithm of the partition coefficient of the neutral form, usually between octanol and water.

Some results are limits rather than exact numbers.

Results on two compounds are retold here after US20240228474A1, “ANTIBACTERIAL COMPOUND” (DISCUVA LIMITED, priority 2021, published 2024).

Data set [1] relates to Proteus mirabilis (DSM 4479). Nature of the data set: MIC by broth microdilution (CLSI). Format: cell-based. The following applies: DSM4479. The procedure:
Minimum Inhibitory Concentrations (MICs) versus Escherichia coli (NCTC 13441) and Klebsiella pneumoniae (NCTC 13438) (planktonic bacteria) were determined by the broth microdilution procedure in line with the guidelines of the Clinical and Laboratory Standards Institute (Clinical and Laboratory Standards Institute. Methods for Dilution Antimicrobial Susceptibility Tests for Bacteria That Grow Aerobically, Approved Standard-Eleventh Edition, CLSI document M07, 11 Jan. 2018). The broth dilution method involved a two-fold serial dilution of compounds in 96-well microtitre plates, giving a final concentration range of 0.39-200 μM and a maximum final concentration of 2% DMSO. The bacterial strains tested were Escherichia coli (NCTC 13441) and Klebsiella pneumoniae (NCTC 13438). Strains were grown in cation-adjusted Müller-Hinton broth or on Luria Bertani agar at 37° C. in an ambient atmosphere. The MIC (μM) was determined as the lowest concentration of compound that inhibits growth following a 20-24 hour incubation period.
Minimum Inhibitory Concentrations (MICs) versus Proteus mirabilis (DSM 4479) were determined for compound (I) and comparative compounds (II) and (III) using the methodology outlined above.

Data set [2] in a line: Volume of distribution (Vss) from mouse plasma profiles. The following applies: mice, 5 mg/kg IV bolus, 2 compartment model. Type of data set: in vivo. The procedure: The volume of distribution (Vss) of compound (I) and comparative compounds (II) and (III) was determined from analysis of plasma concentration time profiles obtained from rodent species (mice), following 5 mg/kg IV bolus administration respectively. The volume of distribution was obtained by analysing the rodent plasma profiles for compound (I) and comparative compounds (II) and (III) using a 2 compartment IV bolus model in PK Solver (Excel). The volume of distribution data for compound (I) and comparative compound (II) was collected in separate experiments carried out on different days, and compared in Table 6.

Data set [3] is described as follows: Lipophilicity, Log P measured with SiriusT3 (octanol titration). Type of data set: physicochemical. The note with it: octanol / aqueous sample solution. The procedure: Log P values of compound (I) and comparative compound (III) were measured using the SiriusT3 instrument from Sirius Analytical by performing an acid-based titration and measuring the shift in pKa when the sample solution is in contact with an immiscible solvent (octanol). Log P for the comparative compound (II) was calculated using Marvin (physico-chemical calculation software). The lipophilicity data for compound (I) and comparative compounds (II) and (III) was collected in separate experiments carried out on different days, and compared in Table 5.

The subject of data set [4] is Klebsiella pneumoniae ATCC 43816. Briefly: Murine respiratory infection proof-of-concept study, IV bolus. Format: in vivo. The following applies: 26 h from initial infection. The protocol: Compound (I) and comparative compound (III) were evaluated in proof-of-concept studies in murine models for the treatment of a respiratory infection with Gram-negative bacteria of the order Enterobacterales, a bacteraemia or bloodstream infection with Gram-negative bacteria of the order Enterobacterales, and a urinary tract infection with Gram-negative bacteria of the order Enterobacterales. Each dot, triangle or square indicator represents a single mouse. LOD refers to the limit of detection of the bacteria. […] Each of the proof-of-concept studies was carried out separately. By vehicle is meant pharmaceutically acceptable carrier or excipient. For the proof-of-concept study for the treatment of a respiratory infection caused or exacerbated by Gram-negative bacteria of the order Enterobacterales, CD-1 mice were infected with Klebsiella pneumoniae ATCC 43816. Two hours after infection (‘pre-treatment’ in FIG. 2), a vehicle (20% hydroxypropyl β cyclodextrin) containing no compound (I) or comparative compound (III), or a vehicle (20% hydroxypropyl β cyclodextrin) containing compound (I) or comparative compound (III), was administered by IV bolus at 20 mg/kg, TID (8 hrs apart), over one day.

Data set [5] relates to E. coli BAA-2469 (NDM-1 positive). Briefly: Murine bacteraemia / bloodstream infection proof-of-concept study, IV bolus. The note with it: single dose IV bolus 20 mg/kg, 9 h from initial infection. Format: in vivo. The procedure: Compound (I) and comparative compound (III) were evaluated in proof-of-concept studies in murine models for the treatment of a respiratory infection with Gram-negative bacteria of the order Enterobacterales, a bacteraemia or bloodstream infection with Gram-negative bacteria of the order Enterobacterales, and a urinary tract infection with Gram-negative bacteria of the order Enterobacterales. Each dot, triangle or square indicator represents a single mouse. LOD refers to the limit of detection of the bacteria. […] Each of the proof-of-concept studies was carried out separately. By vehicle is meant pharmaceutically acceptable carrier or excipient.
For the proof-of-concept study for the treatment of a bacteraemia or bloodstream infection with Gram-negative bacteria of the order Enterobacterales, CD-1 mice were infected with human urine isolate E. coli BAA-2469 (NDM-1 positive). One hour after infection (‘pre-treatment’ in FIG. 3), a vehicle (20% hydroxypropyl β cyclodextrin) containing no compound (I) or comparative compound (III), or a vehicle (20% hydroxypropyl β cyclodextrin) containing compound (I) or comparative compound (III), was administered by as a single dose IV bolus at 20 mg/kg.

The test system of data set [6] is E. coli UT189. Nature of the data set: Murine urinary tract infection proof-of-concept study, IV bolus. Format: in vivo. The following applies: IV bolus 20 mg/kg TID over 3 days, 96 h after initial infection. The protocol: Compound (I) and comparative compound (III) were evaluated in proof-of-concept studies in murine models for the treatment of a respiratory infection with Gram-negative bacteria of the order Enterobacterales, a bacteraemia or bloodstream infection with Gram-negative bacteria of the order Enterobacterales, and a urinary tract infection with Gram-negative bacteria of the order Enterobacterales. Each dot, triangle or square indicator represents a single mouse. LOD refers to the limit of detection of the bacteria. […] Each of the proof-of-concept studies was carried out separately. By vehicle is meant pharmaceutically acceptable carrier or excipient. For the proof-of-concept study for the treatment of a urinary tract infection with Enterobacterales, female C3H/HeN mice were infected with E. coli UT189. Twenty-four hours after infection (‘pre-treatment’ in FIGS. 4a-c), a vehicle (20% hydroxypropyl β cyclodextrin) containing no compound (I) or comparative compound (III), or a vehicle (20% hydroxypropyl β cyclodextrin) containing compound (I) or comparative compound (III), was administered by IV bolus of 20 mg/kg, TID (8 hrs apart), over 3 days.

In the case of `Cc1cc(-c2[nH]c(N)nc2-c2ccc3c(c2)N(C(=O)CN)CCO3)ccn1` [Comparative Compound (II)], in data set [1], the MIC is greater than 200 µM. Besides, in data set [2], the volume of distribution (Vd) came to 7.7 L/kg.
As to `Cc1cnccc1-c1[nH]c(N)nc1-c1ccc2c(c1)N(C(=O)CN)CCO2` [Comparative Compound (III), reference compound], the MIC in data set [1] was greater than 200 µM. The logP in data set [3] amounted to 1.03. This compound also displayed a Vd in data set [2] of 7.9 L/kg. For the same compound, the “reduction of bacterial burden in the lung compared to vehicle” value in data set [4] (CD-1 mice, IV bolus 20 mg/kg TID over one day) is on record as 4.16 log. In addition, the “CFU value in lung relative to stasis level” value in data set [4] (IV bolus 20 mg/kg TID) is recorded as “remained relatively close to the stasis level”. In addition, in data set [5] (CD-1 mice), the “reduction of bacterial burden in the blood compared to vehicle” value was 4.86 log. The “bacterial burden (CFU) in the blood at end of study” value in data set [5] is “remained on or above the stasis level”. Also, in data set [6], the “reduction of bacterial burden in the bladder compared to vehicle” value was 3.71 log. In data set [6] (female C3H/HeN mice), the “reduction of bacterial burden in the urine compared to vehicle” value came to 3.36 log.
